In PubChem BioAssay AID330 (DTP/NCI, 2004):
Values joined by “and” are separate entries in the source; they are usually repeats but may differ in a detail not shown here. Equal values may be shown once. Toxic doses and inconclusive results are not listed. Square brackets hold non-standard residues; d marks the D form. Peptide text beside a SMILES is read from it. * marks the point of attachment. ξ: configuration not given here. Cbz = O=C(OCc1ccccc1)*; OBn = c1ccc(CO*)cc1; Bn = c1ccc(C*)cc1; ξC = NC(CS)C(=O)O

Test system: P388 leukemia ip, CD2F1 mice, survival T/C
Assay: NCI In Vivo Anticancer Drug Screen. Data for tumor model P388 Leukemia (intraperitoneal) in CD2F1 (CDF1) mice
Conditions: endpoint: median survival time, higher = longer survival
Summary of the method: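 Mice carrying the transplanted tumor received test compound or vehicle. Survival was recorded in each group, and the value is the treated-group measurement divided by that of the vehicle-treated control group.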

[1] = dose: 60.0 mg/kg/injection, schedule: Q01DX005 (ip), vehicle: Klucel (hydroxypropylcellulose) (HPC)
[2] = dose: 120.0 mg/kg/injection, schedule: Q01DX005 (ip), vehicle: Klucel (hydroxypropylcellulose) (HPC)
[3] = dose: 60.0 mg/kg/injection, schedule: Q01DX005 (ip), vehicle: saline with Tween-80
[4] = dose: 120.0 mg/kg/injection, schedule: Q01DX005 (ip), vehicle: saline with Tween-80
[5] = dose: 240.0 mg/kg/injection, schedule: Q01DX005 (ip), vehicle: saline with Tween-80
[6] = dose: 50.0 mg/kg/injection, schedule: Q01DX005 (ip), vehicle: saline with Tween-80
[7] = dose: 100.0 mg/kg/injection, schedule: Q01DX005 (ip), vehicle: saline with Tween-80
[8] = dose: 200.0 mg/kg/injection, schedule: Q01DX005 (ip), vehicle: saline with Tween-80
[9] = dose: 50.0 mg/kg/injection, schedule: Q01DX009 (ip), vehicle: saline with Tween-80
[10] = dose: 100.0 mg/kg/injection, schedule: Q01DX009 (ip), vehicle: saline with Tween-80
[11] = dose: 200.0 mg/kg/injection, schedule: Q01DX009 (ip), vehicle: saline with Tween-80
[12] = dose: 50.0 mg/kg/injection, schedule: Q01DX009 (ip), vehicle: saline
[13] = dose: 100.0 mg/kg/injection, schedule: Q01DX009 (ip), vehicle: saline
[14] = dose: 200.0 mg/kg/injection, schedule: Q01DX009 (ip), vehicle: saline
[15] = dose: 25.0 mg/kg/injection, schedule: Q01DX009 (ip), vehicle: saline with Tween-80
[16] = dose: 12.5 mg/kg/injection, schedule: Q01DX009 (ip), vehicle: Klucel (hydroxypropylcellulose) (HPC)
[17] = dose: 60.0 mg/kg/injection, schedule: Q01DX005 (ip), vehicle: saline
[18] = dose: 120.0 mg/kg/injection, schedule: Q01DX005 (ip), vehicle: saline
[19] = dose: 240.0 mg/kg/injection, schedule: Q01DX005 (ip), vehicle: saline

Cc1cc2c(=O)cc(-c3ccccc3)oc2c(C#N)c1C
T/C [1]: 99 % of control | T/C [2]: 94 % of control | T/C (dose: 240.0 mg/kg/injection, schedule: Q01DX005 (ip), vehicle: Klucel (hydroxypropylcellulose) (HPC)): 93 % of control

COC(=O)C(=O)c1cc(=O)[nH]c(NC(C)=O)n1
T/C (dose: 100.0 mg/kg/injection, schedule: Q01DX001 (ip), vehicle: saline with Tween-80): 107 % of control | T/C (dose: 200.0 mg/kg/injection, schedule: Q01DX001 (ip), vehicle: saline with Tween-80): 101 % of control | T/C (dose: 400.0 mg/kg/injection, schedule: Q01DX001 (ip), vehicle: saline with Tween-80): 107 % of control

CO/N=C(\C(O)C(C)O)C(OC)C1Cc2cc3cc(OC4CC(OC(C)=O)C(OC5CC(O)C(OC)C(C)O5)C(C)O4)cc(O)c3c(O)c2C(=O)C1OC1CC(OC2CC(OC3CC(C)(O)C(OC(=O)C(C)C)C(C)O3)C(O)C(C)O2)C(O)C(C)O1 (centres undefined)
T/C (dose: 0.13 mg/kg/injection, schedule: Q01DX005 (ip), vehicle: water): 116 % of control | T/C (dose: 0.25 mg/kg/injection, schedule: Q01DX005 (ip), vehicle: water): 116 % of control and 124 % of control | T/C (dose: 1.0 mg/kg/injection, schedule: Q01DX005 (ip), vehicle: water): 160 % of control | T/C (dose: 2.0 mg/kg/injection, schedule: Q01DX005 (ip), vehicle: water): 163 % of control

COc1ccc(NC(=O)CCC(=O)CC(=O)c2ccc(C)cc2)cc1
T/C [3]: 105 % of control | T/C [4]: 106 % of control | T/C [5]: 101 % of control

CCOC(=O)c1cnc[nH]c1=O
T/C (dose: 25.0 mg/kg/injection, schedule: Q04DX003 (ip), vehicle: saline with Tween-80): 99 % of control | T/C (dose: 50.0 mg/kg/injection, schedule: Q04DX003 (ip), vehicle: saline with Tween-80): 100 % of control | T/C (dose: 100.0 mg/kg/injection, schedule: Q04DX003 (ip), vehicle: saline with Tween-80): 97 % of control | T/C (dose: 200.0 mg/kg/injection, schedule: Q04DX003 (ip), vehicle: saline with Tween-80): 97 % of control

O=C(CNC(=O)C(CSCc1ccccc1)NC(=O)OCc1ccccc1)NCC(=O)OCc1ccccc1 (stereo not drawn) (Cbz-[ξC](Bn)-Gly-Gly-OBn)
T/C (dose: 12.5 mg/kg/injection, schedule: Q01DX005 (ip), vehicle: Klucel (hydroxypropylcellulose) (HPC)): 102 % of control | T/C (dose: 25.0 mg/kg/injection, schedule: Q01DX005 (ip), vehicle: Klucel (hydroxypropylcellulose) (HPC)): 95 % of control | T/C (dose: 50.0 mg/kg/injection, schedule: Q01DX005 (ip), vehicle: Klucel (hydroxypropylcellulose) (HPC)): 102 % of control

Nc1ncnc2c1nnn2CC(O)CO (centres undefined)
T/C [1]: 99 % of control | T/C [2]: 92 % of control

O=c1[nH]c(=O)n(C2OC(CO)C(O)C2O)c(NNc2ccccc2)c1NNc1ccccc1 (centres undefined)
T/C [6]: 97 % of control | T/C [7]: 111 % of control | T/C [8]: 117 % of control

CC1=NNB(O)c2sccc21
T/C [9]: 90 % of control | T/C [10]: 100 % of control | T/C [11]: 91 % of control

CCOC(=O)CC1(C)C(=O)CCCC1=O
T/C (dose: 100.0 mg/kg/injection, schedule: Q04DX003 (ip), vehicle: saline): 101 % of control | T/C (dose: 200.0 mg/kg/injection, schedule: Q04DX003 (ip), vehicle: saline): 100 % of control | T/C (dose: 400.0 mg/kg/injection, schedule: Q04DX003 (ip), vehicle: saline): 100 % of control

COc1ccc(/C(C)=N/OC(=O)c2sc3ccccc3c2Cl)cc1CN1CCOCC1
T/C [12]: 93 % of control | T/C [13]: 97 % of control | T/C [14]: 100 % of control

CCC1=C(C(C)OCCO)C(=O)c2ccccc2C1=O (centres undefined)
T/C [6]: 96 % of control | T/C [7]: 100 % of control | T/C [8]: 94 % of control

Nc1nnc(-c2ccc[n+]([O-])c2)o1
T/C [3]: 96 % of control | T/C [4]: 102 % of control | T/C [5]: 105 % of control

N#CC1=C(C#N)CC(c2ccccc2)CC1 (centres undefined)
T/C [12]: 104 % of control | T/C [13]: 100 % of control | T/C [14]: 96 % of control

NNC(=O)OC12CC3CC(CC(C3)C1)C2
T/C [15]: 110 % of control | T/C [9]: 110 % of control

O=S(=O)(NCc1ccccc1)c1ccccc1
T/C [16]: 104 % of control | T/C (dose: 25.0 mg/kg/injection, schedule: Q01DX009 (ip), vehicle: Klucel (hydroxypropylcellulose) (HPC)): 94 % of control | T/C (dose: 50.0 mg/kg/injection, schedule: Q01DX009 (ip), vehicle: Klucel (hydroxypropylcellulose) (HPC)): 95 % of control | T/C (dose: 100.0 mg/kg/injection, schedule: Q01DX009 (ip), vehicle: Klucel (hydroxypropylcellulose) (HPC)): 104 % of control | T/C (dose: 200.0 mg/kg/injection, schedule: Q01DX009 (ip), vehicle: Klucel (hydroxypropylcellulose) (HPC)): 106 % of control

O=C(O)C(Cc1ccccc1[N+](=O)[O-])N1C(=O)c2ccccc2C1=O (centres undefined)
T/C [9]: 112 % of control | T/C [10]: 92 % of control | T/C [11]: 94 % of control | T/C (dose: 400.0 mg/kg/injection, schedule: Q01DX009 (ip), vehicle: saline with Tween-80): 100 % of control

N#CCCNNc1ccccc1
T/C (dose: 50.0 mg/kg/injection, schedule: Q01DX001 (ip), vehicle: saline): 100 % of control | T/C (dose: 100.0 mg/kg/injection, schedule: Q01DX001 (ip), vehicle: saline): 106 % of control | T/C (dose: 200.0 mg/kg/injection, schedule: Q01DX001 (ip), vehicle: saline): 97 % of control

Cc1cc(-c2cc(C)on2)no1
T/C [17]: 103 % of control | T/C [18]: 103 % of control | T/C [19]: 103 % of control

CCC(C)C1NC(=O)C(NC(=O)c2c3nc4c(C(=O)NC5C(=O)NC(C(C)CC)C(=O)N6CCCC6C(=O)N(C)CC(=O)N(C)C(C(C)C)C(=O)OC5C)cc([N+](=O)[O-])c(C)c4oc-3c(C)c(=O)c2N)C(C)OC(=O)C(C(C)C)N(C)C(=O)CN(C)C(=O)C2CCCN2C1=O (centres undefined)
T/C (dose: 0.2 mg/kg/injection, schedule: Q01DX009 (ip), vehicle: Klucel (hydroxypropylcellulose) (HPC)): 168 % of control | T/C (dose: 0.4 mg/kg/injection, schedule: Q01DX009 (ip), vehicle: Klucel (hydroxypropylcellulose) (HPC)): 228 % of control | T/C (dose: 0.4 mg/kg/injection, schedule: Q01DX009 (ip), vehicle: water): 169 % of control | T/C (dose: 0.6 mg/kg/injection, schedule: Q01DX009 (ip), vehicle: water): 193 % of control | T/C (dose: 0.8 mg/kg/injection, schedule: Q01DX009 (ip), vehicle: Klucel (hydroxypropylcellulose) (HPC)): 92 % of control

NN1C(=O)C2C3C=CC(C4CC34)C2C1=O (centres undefined)
T/C (dose: 6.25 mg/kg/injection, schedule: Q01DX009 (ip), vehicle: Klucel (hydroxypropylcellulose) (HPC)): 100 % of control | T/C [16]: 110 % of control

CSc1nc(SC)c2c(CN=[N+]=[N-])c(Br)n(Cc3ccccc3)c2n1
T/C (dose: 3.13 mg/kg/injection, schedule: Q01DX001 (ip), vehicle: saline with Tween-80): 98 % of control | T/C (dose: 6.25 mg/kg/injection, schedule: Q01DX001 (ip), vehicle: saline with Tween-80): 86 % of control | T/C (dose: 25.0 mg/kg/injection, schedule: Q01DX001 (ip), vehicle: saline with Tween-80): 86 % of control

Clc1nn2nnnc2c2ccccc12
T/C (dose: 5.0 mg/kg/injection, schedule: Q01DX009 (ip), vehicle: saline): 100 % of control and 96 % of control | T/C (dose: 10.0 mg/kg/injection, schedule: Q01DX009 (ip), vehicle: saline): 95 % of control and 97 % of control | T/C (dose: 20.0 mg/kg/injection, schedule: Q01DX009 (ip), vehicle: saline): 89 % of control and 94 % of control | T/C (dose: 40.0 mg/kg/injection, schedule: Q01DX009 (ip), vehicle: saline): 100 % of control and 91 % of control

O=C(O)Cc1c(-c2ccccc2)nc(=S)[nH]c1-c1[nH]c(=S)nc(-c2ccccc2)c1CC(=O)O
T/C [17]: 111 % of control | T/C [18]: 106 % of control | T/C [19]: 96 % of control

CCCCCC(C)COS(=O)(=O)c1ccc([N+](C)(C)C)cc1 (centres undefined)
T/C (dose: 12.5 mg/kg/injection, schedule: Q01DX009 (ip), vehicle: saline with Tween-80): 102 % of control | T/C [15]: 103 % of control | T/C [9]: 105 % of control

CCCCN(CCNc1ccc(C)c2sc3ccccc3c(=O)c12)CC(C)O (centres undefined)
T/C [6]: 101 % of control | T/C [7]: 104 % of control | T/C [8]: 101 % of control

CCCCN=NN/C=C/C(C)(C)C
T/C [6]: 115 % of control
